In brackets after ≈: the same amount, converted by molar mass. Where two headings read alike, the source gives them in different places.
Experiments:
E. coli = test: Range of MIC for E. coli strains; settings: Escherichia coli
Staph. aureus Smith = test: In vivo activity (oral, iv; ED50) against Staph. aureus Smith in mice
Staph. = test: Range of MIC for Staph. strains, including MRSA; settings: Staphylococcus aureus, MRSA
[1] = 20 h, read-out: Range of MIC, E. coli (Mouse Serum)
[2] = read-out: Minimum inhibitory concentration (MIC), E. coli (mouse serum)
[3] = read-out: Minimum inhibitory concentration (MIC), E. coli (water)
[4] = read-out: Range of MIC, E. coli (Water)
[5] = Staphylococcus aureus, in Mus musculus, po, read-out: ED50 Staph Smith SOD
[6] = iv, read-out: ED50 Staph Smith SIV
[7] = read-out: Minimum inhibitory concentration (MIC), Staph. (mouse serum)
[8] = read-out: Minimum inhibitory concentration (MIC), Staph. (water)
[9] = read-out: Range of MIC, Staph (Mouse Serum)
[10] = read-out: Range of MIC, Staph (Water)

SMILES | MIC (E. coli; [1]) | MIC (E. coli; [2]) | MIC (E. coli; [3]) | MIC (E. coli; [4]) | MIC (Staph.; [7]) | MIC (Staph.; [8]) | MIC (Staph.; [9]) | MIC (Staph.; [10]) | ED50 (Staph. aureus Smith; [5]) | ED50 (Staph. aureus Smith; [6])
CN(C)c1cc(NC(=O)CN(C(=O)OCOC(=O)/C=C/c2ccccc2)C(C)(C)C)c(O)c2c1C[C@H]1C[C@H]3[C@H](N(C)C)C(O)=C(C(N)=O)C(=O)[C@@]3(O)C(O)=C1C2=O [Example 99, ({[(2-{[(5aR,6aS,7S,10aS)-9-(aminocarbonyl)-4,7-bis(dimethylamino)-1,8,10a,11-tetrahydroxy-10,12-dioxo-5,5a,6,6a,7,10,10a,12-octahydrotetracen-2-yl]amino}-2-oxoethyl)(tert-butyl)amino]carbonyl}oxy)methyl (2E)-3-phenylprop-2-enoate] | 1 to 2 µg/mL (≈ 1.27 to 2.53 µM) |  |  | > 64 µg/mL |  |  | 0.5 to 2 µg/mL (≈ 0.633 to 2.53 µM) | 2 to 4 µg/mL (≈ 2.53 to 5.06 µM) |  | 
CN(C)c1cc(NC(=O)CN(C(=O)OCOC(=O)Cc2cc(C(F)(F)F)cc(C(F)(F)F)c2)C(C)(C)C)c(O)c2c1C[C@H]1C[C@H]3[C@H](N(C)C)C(O)=C(C(N)=O)C(=O)[C@@]3(O)C(O)=C1C2=O [Example 101, ({[(2-{[(5aR,6aS,7S,10aS)-9-(aminocarbonyl)-4,7-bis(dimethylamino)-1,8,10a,11-tetrahydroxy-10,12-dioxo-5,5a,6,6a,7,10,10a,12-octahydrotetracen-2-yl]amino}-2-oxoethyl)(tert-butyl)amino]carbonyl}oxy)methyl [3,5-bis(trifluoromethyl)phenyl]acetate] | 1 µg/mL (≈ 1.09 µM) |  |  | 16 to 32 µg/mL (≈ 17.5 to 35 µM) |  |  | 0.5 to 2 µg/mL (≈ 0.547 to 2.19 µM) | 4 to 16 µg/mL (≈ 4.38 to 17.5 µM) |  | 
CN(C)c1cc(NC(=O)CN(C(=O)OCOC(=O)c2ccccc2CCc2ccccc2)C(C)(C)C)c(O)c2c1C[C@H]1C[C@H]3[C@H](N(C)C)C(O)=C(C(N)=O)C(=O)[C@@]3(O)C(O)=C1C2=O [Example 103, ({[(2-{[(5aR,6aS,7S,10aS)-9-(aminocarbonyl)-4,7-bis(dimethylamino)-1,8,10a,11-tetrahydroxy-10,12-dioxo-5,5a,6,6a,7,10,10a,12-octahydrotetracen-2-yl]amino}-2-oxoethyl)(tert-butyl)amino]carbonyl}oxy)methyl 2-(2-phenylethyl)benzoate] | 8 to 16 µg/mL (≈ 9.22 to 18.4 µM) |  |  | > 64 µg/mL |  |  | 8 to 16 µg/mL (≈ 9.22 to 18.4 µM) |  |  | 
CCCCCCCCCCCCOc1ccc(C(=O)OCOC(=O)N(CC(=O)Nc2cc(N(C)C)c3c(c2O)C(=O)C2=C(O)[C@]4(O)C(=O)C(C(N)=O)=C(O)[C@@H](N(C)C)[C@@H]4C[C@@H]2C3)C(C)(C)C)cc1 [Example 104] | 8 to 16 µg/mL (≈ 8.44 to 16.9 µM) |  |  | > 64 µg/mL |  |  | 16 to 64 µg/mL (≈ 16.9 to 67.5 µM) |  |  | 
CN(C)c1cc(NC(=O)CN(C(=O)OCOC(=O)c2c3ccccc3cc3ccccc23)C(C)(C)C)c(O)c2c1C[C@H]1C[C@H]3[C@H](N(C)C)C(O)=C(C(N)=O)C(=O)[C@@]3(O)C(O)=C1C2=O [Example 106, ({[(2-{[(5aR,6aS,7S,10aS)-9-(aminocarbonyl)-4,7-bis(dimethylamino)-1,8,10a,11-tetrahydroxy-10,12-dioxo-5,5a,6,6a,7,10,10a,12-octahydrotetracen-2-yl]amino}-2-oxoethyl)(tert-butyl)amino]carbonyl}oxy)methyl anthracene-9-carboxylate] | > 64 µg/mL |  |  | > 64 µg/mL |  |  | > 64 µg/mL | > 64 µg/mL |  | 
CN(C)c1cc(NC(=O)CN(C(=O)OCOC(=O)c2ccc(C(=O)c3ccccc3)cc2)C(C)(C)C)c(O)c2c1C[C@H]1C[C@H]3[C@H](N(C)C)C(O)=C(C(N)=O)C(=O)[C@@]3(O)C(O)=C1C2=O [Example 107, ({[(2-{[(5aR,6aS,7S,10aS)-9-(aminocarbonyl)-4,7-bis(dimethylamino)-1,8,10a,11-tetrahydroxy-10,12-dioxo-5,5a,6,6a,7,10,10a,12-octahydrotetracen-2-yl]amino}-2-oxoethyl)(tert-butyl)amino]carbonyl}oxy)methyl 4-benzoylbenzoate] | > 64 µg/mL |  |  | 0.5 to 1 µg/mL (≈ 0.576 to 1.15 µM) |  |  | 2 to 8 µg/mL (≈ 2.3 to 9.22 µM) | 0.5 to 1 µg/mL (≈ 0.576 to 1.15 µM) |  | 

More lines, main results first:

MIC (E. coli; [1]) | MIC (E. coli; [2]) | MIC (E. coli; [3]) | MIC (E. coli; [4]) | MIC (Staph.; [7]) | MIC (Staph.; [8]) | MIC (Staph.; [9]) | MIC (Staph.; [10]) | SMILES | ED50 (Staph. aureus Smith; [5]) | ED50 (Staph. aureus Smith; [6])
0.5 to 2 µg/mL (≈ 0.648 to 2.59 µM) | 0.5 to 2 µg/mL (≈ 0.648 to 2.59 µM) | 32 to 64 µg/mL (≈ 41.5 to 82.9 µM) | 32 to 64 µg/mL (≈ 41.5 to 82.9 µM) | 1 to 4 µg/mL (≈ 1.3 to 5.18 µM) | 2 to 32 µg/mL (≈ 2.59 to 41.5 µM) | 1 to 4 µg/mL (≈ 1.3 to 5.18 µM) | 2 to 32 µg/mL (≈ 2.59 to 41.5 µM) | CCCCCCC(=O)OCOC(=O)N(CCCC)CC(=O)Nc1cc(N(C)C)c2c(c1O)C(=O)C1=C(O)[C@]3(O)C(=O)C(C(N)=O)=C(O)[C@@H](N(C)C)[C@@H]3C[C@@H]1C2 [Example 17, ({[(2-{[(5aR,6aS,7S,10aS)-9-(aminocarbonyl)-4,7-bis(dimethylamino)-1,8,10a,11-tetrahydroxy-10,12-dioxo-5,5a,6,6a,7,10,10a,12-octahydrotetracen-2-yl]amino}-2-oxoethyl)(butyl)amino]carbonyl}oxy)methyl heptanoate] | 59.9 mg/kg | 1.07 mg/kg
0.5 to 2 µg/mL (≈ 0.674 to 2.7 µM) | 0.5 to 2 µg/mL (≈ 0.674 to 2.7 µM) | 4 to 8 µg/mL (≈ 5.39 to 10.8 µM) | 4 to 8 µg/mL (≈ 5.39 to 10.8 µM) | 1 to 4 µg/mL (≈ 1.35 to 5.39 µM) | 1 to 4 µg/mL (≈ 1.35 to 5.39 µM) | 1 to 4 µg/mL (≈ 1.35 to 5.39 µM) | 1 to 4 µg/mL (≈ 1.35 to 5.39 µM) | CCCCN(CC(=O)Nc1cc(N(C)C)c2c(c1O)C(=O)C1=C(O)[C@]3(O)C(=O)C(C(N)=O)=C(O)[C@@H](N(C)C)[C@@H]3C[C@@H]1C2)C(=O)OCOC(=O)C1CCC1 [Example 18, ({[(2-{[(5aR,6aS,7S,10aS)-9-(aminocarbonyl)-4,7-bis(dimethylamino)-1,8,10a,11-tetrahydroxy-10,12-dioxo-5,5a,6,6a,7,10,10a,12-octahydrotetracen-2-yl]amino}-2-oxoethyl)(butyl)amino]carbonyl}oxy)methyl cyclobutanecarboxylate] | 29 mg/kg | 0.6 mg/kg
0.5 to 2 µg/mL (≈ 0.61 to 2.44 µM) | 0.5 to 2 µg/mL (≈ 0.61 to 2.44 µM) | > 64 µg/mL | > 64 µg/mL | 1 to 4 µg/mL (≈ 1.22 to 4.88 µM) |  | 1 to 4 µg/mL (≈ 1.22 to 4.88 µM) |  | CCCCN(CC(=O)Nc1cc(N(C)C)c2c(c1O)C(=O)C1=C(O)[C@]3(O)C(=O)C(C(N)=O)=C(O)[C@@H](N(C)C)[C@@H]3C[C@@H]1C2)C(=O)OCOC(=O)c1ccc(C(C)(C)C)cc1 [Example 20, ({[(2-{[(5aR,6aS,7S,10aS)-9-(aminocarbonyl)-4,7-bis(dimethylamino)-1,8,10a,11-tetrahydroxy-10,12-dioxo-5,5a,6,6a,7,10,10a,12-octahydrotetracen-2-yl]amino}-2-oxoethyl)(butyl)amino]carbonyl}oxy)methyl 4-tert-butylbenzoate] | 19.4 mg/kg | 0.6 mg/kg
0.5 to 1 µg/mL (≈ 0.649 to 1.3 µM) | 0.5 to 1 µg/mL (≈ 0.649 to 1.3 µM) | > 64 µg/mL | > 64 µg/mL | 0.25 to 2 µg/mL (≈ 0.325 to 2.6 µM) | 1 to 4 µg/mL (≈ 1.3 to 5.2 µM) | 0.25 to 2 µg/mL (≈ 0.325 to 2.6 µM) | 1 to 4 µg/mL (≈ 1.3 to 5.2 µM) | CCCCN(CC(=O)Nc1cc(N(C)C)c2c(c1O)C(=O)C1=C(O)[C@]3(O)C(=O)C(C(N)=O)=C(O)[C@@H](N(C)C)[C@@H]3C[C@@H]1C2)C(=O)OCOC(=O)c1ccsc1 [Example 29, ({[(2-{[(5aR,6aS,7S,10aS)-9-(aminocarbonyl)-4,7-bis(dimethylamino)-1,8,10a,11-tetrahydroxy-10,12-dioxo-5,5a,6,6a,7,10,10a,12-octahydrotetracen-2-yl]amino}-2-oxoethyl)(butyl)amino]carbonyl}oxy)methyl thiophene-3-carboxylate] | 13.7 mg/kg | 0.43 mg/kg
2 µg/mL (≈ 2.45 µM) |  |  |  |  |  | 0.5 to 1 µg/mL (≈ 0.611 to 1.22 µM) | 2 to 4 µg/mL (≈ 2.45 to 4.89 µM) | Cc1c(C(=O)OCOC(=O)N(CC(=O)Nc2cc(N(C)C)c3c(c2O)C(=O)C2=C(O)[C@]4(O)C(=O)C(C(N)=O)=C(O)[C@@H](N(C)C)[C@@H]4C[C@@H]2C3)C(C)(C)C)oc2ccccc12 [Example 100, ({[(2-{[(5aR,6aS,7S,10aS)-9-(aminocarbonyl)-4,7-bis(dimethylamino)-1,8,10a,11-tetrahydroxy-10,12-dioxo-5,5a,6,6a,7,10,10a,12-octahydrotetracen-2-yl]amino}-2-oxoethyl)(tert-butyl)amino]carbonyl}oxy)methyl 3-methyl-1-benzofuran-2-carboxylate] |  | 
2 µg/mL (≈ 2.44 µM) |  |  | > 64 µg/mL |  |  | 1 to 2 µg/mL (≈ 1.22 to 2.44 µM) |  | CC(=O)Nc1ccc(C(=O)OCOC(=O)N(CC(=O)Nc2cc(N(C)C)c3c(c2O)C(=O)C2=C(O)[C@]4(O)C(=O)C(C(N)=O)=C(O)[C@@H](N(C)C)[C@@H]4C[C@@H]2C3)C(C)(C)C)cc1 [Example 105] |  | 
0.25 to 1 µg/mL (≈ 0.305 to 1.22 µM) |  |  | 1 to 4 µg/mL (≈ 1.22 to 4.88 µM) |  |  | 0.5 to 8 µg/mL (≈ 0.61 to 9.76 µM) | 1 to 16 µg/mL (≈ 1.22 to 19.5 µM) | CCCN(CC(=O)Nc1cc(N(C)C)c2c(c1O)C(=O)C1=C(O)[C@]3(O)C(=O)C(C(N)=O)=C(O)[C@@H](N(C)C)C3CC1C2)C(=O)OCc1oc(=O)oc1-c1ccc(OC)cc1 (stereo partly drawn) [Example 111, [5-(4-methoxyphenyl)-2-oxo-1,3-dioxol-4-yl]methyl 2-{[(7S,10aS)-9-(aminocarbonyl)-4,7-bis(dimethylamino)-1,8,10a,11-tetrahydroxy-10,12-dioxo-5,5a,6,6a,7,10,10a, 12-octahydrotetracen-2-yl]amino}-2-oxoethyl(propyl)carbamate] |  | 

Reference: US20070049564A1 (Wyeth, priority 2005, published 2007)
